The source of these data is paper PMC7663263 (Molecules, 2020).

Each structure is given as a SMILES string.

Broadly, the IC50 is the midpoint of a concentration-inhibition curve. The CC50 is the concentration giving 50% cytotoxicity.

The test system of data set [1] is T. b. gambiense (ITMAP/1893). In words: Anti-trypanosomal activity, T. b. gambiense trypomastigotes (resazurin). In kind it is cell-based, Trypanosoma brucei gambiense. The conditions noted are these: 72 h, read-out: T. b. gambiense IC50 (µM) ± SD. Here is the method:
Anti-trypanosomal activity: T. b. brucei Squib-427 strain (suramin-sensitive) and T. b. gambiense (ITMAP/1893) were cultured at 37 °C and 5% CO2 in HMI-9 medium supplemented with 10% FCS [90]. About 10^4 trypomastigotes/well were added to each well and parasite growth was assessed after 72 h at 37 °C by adding resazurin and reading at ex 550 nm, em 590 nm. Suramin was included as reference drug for T. b. brucei and pentamidine for T. b. gambiense.
(In general: Resazurin is reduced to fluorescent resorufin, in cell work by metabolically active cells.)

In data set [2] the test system is O. ochengi adult female. Kind of data set: Onchocerca ochengi adult female worm assay (MTT/formazan). The data set is classed as cell-based. The conditions noted are these: 10 μM; females assessed by MTT/formazan assay. The protocol: (§1) Onchocerca ochengi adult worm assays: For O. ochengi worm assays, subcutaneous nodules containing adult O. ochengi worms were removed from the hides of infected cows collected at abattoirs in Douala, Cameroon. Masses were incubated in 4 mL of complete culture medium (RPMI-1640, 5% newborn calf serum, 200 units/mL penicillin, 200 μg/mL streptomycin and 2.5 μg/mL amphotericin B) in standard 12-well culture plates and maintained in a 37 °C, 5% CO2 incubator overnight during which time the adult males migrated out of the masses while the females remained in the nodules. Compound and control wells (worms in 1% DMSO) were tested in quadruplicate and experiments were repeated twice on different days. Cultures were terminated on day 7. […] Adult female worm viability was assessed on day 7 by the standard MTT/formazan assay in which each nodular mass was placed in a well of a 48-well plate containing 500 μL of 0.5 mg/mL MTT (Sigma-Aldrich) in culture medium. Viability was evaluated visually by the extent to which the female worm mass was stained with MTT. Mean percent inhibition of formazan formation was calculated relative to the negative control worm masses after 7 days in culture.

The subject of data set [3] is T. cruzi Tulahuen CL2. In words: Anti-Chagas activity, T. cruzi on MRC-5 cells. The data set is classed as cell-based. To be noted: amastigotes, MRC-5 host cells, 7 days; read-out: Trypanosoma cruzi IC50 (µM) ± SD. The protocol: Anti-Chagas activity: T. cruzi Tulahuen CL2 (benznidazole-sensitive, LacZ-reporter strain) was maintained on MRC-5 cells in minimal essential medium (MEM) supplemented with […], 16.5 mM sodium hydrogen carbonate and 5% FCS. In the assay, 4 × 10^3 MRC-5 cells and 4 × 10^4 parasites were added to each well. After incubation at 37 °C for 7 days, parasite growth was assessed by adding the substrate chlorophenol red -D-galactopyranoside. The color reaction was read at 540 nm after 4 h and absorbance values were expressed as a percentage of the blank controls. Benznidazole was included as reference drug.

In data set [4] the test system is O. ochengi microfilariae. Kind of data set: O. ochengi microfilariae motility assay. To be noted: 10 μM. The data set is classed as cell-based, Onchocerca ochengi. Here is the method:
O. ochengi microfilariae assays: were collected from the hides of infected cattle and washed prior to adding 10–15 microfilariae to 96-well culture plates containing confluent monkey kidney epithelial cells in 100 μL of media. Microfilariae were run in duplicate and plates were maintained at 37 °C in a 5% CO2 incubator. Microfilariae viability was visually scored using percent reduction of motility using the same scoring criteria used for adult males. Scores were recorded every 24 h after addition of drugs for 5 days using an inverted microscope.

Data set [5] relates to TBL3 cells (BL3 infected with T. annulata). In words: Proliferation test on Theileria annulata-infected cells (TBL3). The data set is classed as cell-based, bovine / Theileria annulata. To be noted: 0.5 μM. Here is the method: (§2) Theileria annulata culture: The TBL3 cell line was derived by in vitro infection of the spontaneous bovine B-lymphosarcoma cell line BL3 with the Hissar stock of T. annulata. B cell characteristics of the lines have been described. The cells are maintained at 37 °C under 5% CO2, in RPMI medium supplemented with 10% FCS, 25 mM Hepes, 4 mM L-glutamine, 100 μg/mL of streptomycin, 100 IU/mL of penicillin and […] 2-mercapthoethanol.
(§3) Cells were cultured in 12-well plates at an initial density of 200,000 cells per well in duplicate for each condition. […] The cells were cultured in 12-well plates at an initial density of 200,000 cells per well and drug was added every 24 h. To be able to compare the results, a drug-free control was also performed. Cell counting was done at 24, 72 and 96 h using the trypan blue method.

Data set [6] concerns O. ochengi adult male. In words: Onchocerca ochengi adult male worm motility assay. To be noted: 10 μM. The data set is classed as cell-based. Here is the method: as §1
Data set [7] deals with BL3 cells. In kind it is cell-based, bovine. The protocol:
as §2, §3

The test system of data set [8] is Human TrxR. To be noted: 3.7 nM enzyme, 3 mM DTNB; after 10 min preincubation; read-out: IC50 Human TrxR, substrate DTNB; cited from earlier work.
Data set [9] deals with B. pahangi TrxR. In words: B. pahangi TrxR enzyme assay, DTNB reduction (original data). The conditions noted are these: 100 nM enzyme, 3 mM DTNB; after 10 min preincubation; read-out: IC50 B. pahangi TrxR, substrate DTNB (original data). The data set is classed as biochemical, Brugia pahangi. Here is the method:
Enzymes were prepared in E. coli as described. Assays were performed at 25 °C in 0.1 M potassium phosphate (pH 7.4), 10 mM EDTA using 100 μM NADPH and 3 mM dithiobis(2-nitrobenzoic acid) (DTNB). […] The increase in A412 during the first 3 min was recorded upon DTNB addition. The reaction was done in triplicate.

As to `CC(=O)OCC1OC([S][Au][PH]2(c3ccccc3)C(c3ccccn3)=CC=C2c2ccccn2)C(OC(C)=O)C(OC(C)=O)C1OC(C)=O` [GoPI-sugar, 1-thio-β-D-glucopyranose 2,3,4,6-tetraacetato-S-Au{1-phenyl-2,5-di(2-pyridyl)phosphole}], the IC50 in data set [1] is 1.11 ± 0.12 µM; in data set [3] it was 0.56 ± 0.11 µM; in [8], 0.49 ± 0.04 nM; in data set [9] it was 5.5 nM. In addition, the “% Inhibition of Motility O. ochengi Adult Female Day 7” value in data set [2] is listed as 51%. The “% Inhibition of Motility O. ochengi mf Day 5” value in data set [4] amounted to 100%. For the same compound, the “time at which the antiproliferative effect occurred” value in data set [5] (TBL3 cells) is recorded as 24 h. Further, in [5] (first 24 h, initial density 200,000 cells per well), the “number of TBL3 cells per well” value is on record as 200,000 cells per well. In addition, in [6], the “% Inhibition of Motility O. ochengi Adult Male Day 5” value was 100%. The same compound yielded a CC50 in data set [7] of roughly 500 nM.
